This note sets out measurements from patent publication EP4585599A1, “NITROGEN-CONTAINING FUSED RING COMPOUND, INTERMEDIATE THEREOF, PREPARATION METHOD THEREFOR AND USE THEREOF” (Hangzhou Synrx Therapeutics Biomedical Technology Co., Ltd., priority 2022, dated 2024).

Like-named read-outs stand apart in the source and are kept apart here.

For assay [1], the target named is T1, helicase domain of the Pol θ protein (Homo sapiens, UniProt O75417).
T1 construct: The helicase domain of the Pol θ protein was purified from insect protein expression system; made in house; host or cells: insect protein expression system
T1 sequence (O75417 102-554 limits assumed): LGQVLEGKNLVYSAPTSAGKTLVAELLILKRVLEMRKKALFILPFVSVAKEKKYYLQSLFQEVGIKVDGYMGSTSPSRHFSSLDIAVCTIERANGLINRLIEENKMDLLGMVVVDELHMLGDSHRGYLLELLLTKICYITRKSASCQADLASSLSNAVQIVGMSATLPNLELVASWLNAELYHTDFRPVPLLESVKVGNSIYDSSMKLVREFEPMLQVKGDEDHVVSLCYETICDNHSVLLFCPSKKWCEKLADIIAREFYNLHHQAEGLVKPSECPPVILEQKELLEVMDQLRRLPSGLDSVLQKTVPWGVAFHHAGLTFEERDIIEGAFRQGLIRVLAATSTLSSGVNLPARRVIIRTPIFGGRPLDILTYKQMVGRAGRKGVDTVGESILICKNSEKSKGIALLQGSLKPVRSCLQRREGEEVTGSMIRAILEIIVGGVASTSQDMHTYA
The assay is described as follows: Biochemical Activity Assay (ADP Glo Assay) of Pol θ inhibitor, ATPase activity. To be noted: ssDNA substrate, read-out: Biochemical assay IC50. For orientation: In ADP-Glo the light output rises with the ADP produced.

A short description of another assay: cells. To be noted: Homo sapiens, DLD-1, 240 h.
Where [2] appears, read: ADP-Glo, 60 min at room temperature.
[3] abbreviates: read-out: Cell viability assay IC50 (nM), CTG on Day 10, cell line not given (method: DLD1 and DLD1^-/- cells).
Where [4] appears, read: ADP-Glo assay, ATPase activity of Pol θ helicase domain.
Where [5] appears, read: read-out: Cell viability assay IC50 (nM), CTG assay, CellTiter Glo, read on Day 10, cell line not given.

Turning to `COc1cnc(Cl)cc1-c1cc(C)ncc1C(=O)Nc1nc2cc[nH]c2s1` [Example 90, 2'-chloro-5'-methoxy-6-methyl-N-(4H-pyrrolo[3,2-d]thiazol-2-yl)-[4,4'-bipyridine]-3-car boxamide], the IC50 in assay [1] (setting [2]) was above 0.5 µM; in the assay “cells” (setting [3]), above 1000 nM.

With `COc1cnc(Cl)cc1-c1cc(C)ncc1C(=O)Nc1nc2cnc(C3=CCC(O)CC3)nc2s1` (stereo not shown) [Example 91, 2'-chloro-N-(5-(4-hydroxycyclohex-1-en-1-yl)thiazolo[5,4-d]pyrimidin-2-yl)-5'-methoxy-6-methyl-[4,4'-bipyridine]-3-carboxamide], the IC50 in assay [1] (setting [4]) is 0.00188 µM; in assay [1] (setting [2]), below 0.05 µM; in “cells” (setting [5]) it was 11.7 nM; in the assay “cells” (setting [3]) it was below 100 nM.

For the compound `COc1cnc(Cl)cc1-c1cc(C)ncc1C(=O)Nc1nc2ncc(CC(C)(C)O)cc2s1` [Example 93, 2'-chloro-N-(6-(2-hydroxy-2-methylpropyl)thiazolo[4,5-b]pyridin-2-yl)-5'-methoxy-6-me thyl-[4,4'-bipyridine]-3-carboxamide], the IC50 in assay [1] (setting [4]) was 0.00593 µM; in assay [1] (setting [2]), below 0.05 µM; in “cells” (setting [5]), 355 nM; in the assay “cells” (setting [3]), 100 to 500 nM.

For the compound `COc1cnc(Cl)cc1-c1cc(C)ncc1C(=O)Nc1nc2ncc(S(C)(=O)=O)cc2s1` [Example 94, 2'-chloro-5'-methoxy-6-methyl-N-(6-(methylsulfonyl)thiazolo[4,5-b]pyridin-2-yl)-[4,4'-bipyridine]-3-carboxamide], the IC50 in assay [1] (setting [4]) is 0.00698 µM; in assay [1] (setting [2]), below 0.05 µM; in “cells” (setting [5]), 631 nM; in “cells” (setting [3]) it was 500 to 1000 nM.

With `COc1cnc(Cl)cc1-c1cc(C)ncc1C(=O)Nc1nc2ncc(C(C)(C)O)cc2s1` [Example 95, 2'-chloro-N-(6-(2-hydroxypropan-2-yl)thiazolo[4,5-b]pyridin-2-yl)-5'-methoxy-6-methyl-[4,4'-bipyridine]-3-carboxamide], the IC50 in assay [1] (setting [4]) was 0.00894 µM; in assay [1] (setting [2]), below 0.05 µM; in the assay “cells” (setting [5]), 383 nM; in “cells” (setting [3]), 100 to 500 nM.

On to `COc1cnc(Cl)cc1-c1cc(C)ncc1C(=O)Nc1nc2ncc(C(=O)N3CCC(O)CC3)cc2s1` [Example 96, 2'-chloro-N-(6-(4-hydroxypiperidin-1-carbonyl)thiazolo[4,5-b]pyridin-2-yl)-5'-methoxy-6-methyl-[4,4'-bipyridine]-3-carboxamide], for which the IC50 in assay [1] (setting [4]) was 0.00558 µM; in assay [1] (setting [2]), below 0.05 µM; in the assay “cells” (setting [5]), 7640 nM; in the assay “cells” (setting [3]), above 1000 nM.

On to `COc1cnc(Cl)cc1-c1cc(C)ncc1C(=O)Nc1nc2ncc(N3CCC(CO)CC3)cc2s1` [Example 98, 2'-chloro-N-(6-(4-(hydroxymethyl)piperidin-1-yl)thiazolo[4,5-b]pyridin-2-yl)-5'-methox y-6-methyl-[4,4'-bipyridine]-3-carboxamide], for which the IC50 is 0.00296 µM in assay [1] (setting [4]), below 0.05 µM in assay [1] (setting [2]), 10.6 nM in the assay “cells” (setting [5]) and below 100 nM in the assay “cells” (setting [3]).

In the case of `COc1cnc(Cl)cc1-c1cc(C)ncc1C(=O)Nc1nc2ncc(N3CCC4(CC(O)C4)C3)cc2s1` (stereo not shown) [Example 99], the IC50 in assay [1] (setting [4]) is 0.0143 µM; in assay [1] (setting [2]), below 0.05 µM; in the assay “cells” (setting [5]), 138 nM; in “cells” (setting [3]), 100 to 500 nM.

`COc1cnc(Cl)cc1-c1cc(C)ncc1C(=O)Nc1nc2ncc(N3CC[C@H](O)[C@H](F)C3)cc2s1` [Example 100]: the IC50 in assay [1] (setting [4]) was 0.00295 µM; in assay [1] (setting [2]), below 0.05 µM; in the assay “cells” (setting [5]), 207 nM; in “cells” (setting [3]), 100 to 500 nM.

`COc1cnc(Cl)cc1-c1cc(C)ncc1C(=O)Nc1nc2ncc(N3CC[C@@H](O)[C@H](F)C3)cc2s1` [Example 101]: the IC50 in assay [1] (setting [4]) is 0.00378 µM; in assay [1] (setting [2]) it was below 0.05 µM; in the assay “cells” (setting [5]) it was 389 nM; in “cells” (setting [3]) it was 100 to 500 nM.

For `COc1cnc(Cl)cc1-c1cc(C)ncc1C(=O)Nc1nc2ccc(N3CCC(O)CC3)cc2s1` [Example 102], the IC50 in assay [1] (setting [4]) is 0.00806 µM; in assay [1] (setting [2]), below 0.05 µM; in “cells” (setting [5]) it was 178 nM; in the assay “cells” (setting [3]), below 100 nM.

Regarding `COc1cnc(Cl)cc1-c1cc(C)ncc1C(=O)Nc1nc2c(F)cc(N3CCC(O)CC3)cc2s1` [Example 103], the IC50 in assay [1] (setting [4]) is 0.00267 µM; in assay [1] (setting [2]), below 0.05 µM; in the assay “cells” (setting [5]), 22.4 nM; in the assay “cells” (setting [3]), below 100 nM.

`COc1cnc(Cl)cc1-c1cc(C)ncc1C(=O)Nc1nc2ccc(N3CCC(O)CC3)c(F)c2s1` [Example 104]: the IC50 is 0.00156 µM in assay [1] (setting [4]), below 0.05 µM in assay [1] (setting [2]), 5.62 nM in the assay “cells” (setting [5]) and below 100 nM in the assay “cells” (setting [3]).

In the case of `COc1cnc(Cl)cc1-c1cc(C)ncc1C(=O)Nc1nc2ncc(-c3ccnc(N4CCN[C@H](C)C4)c3)cc2s1` [Example 105, (R)-2'-chloro-5'-methoxy-6-methyl-N-(6-(2-(3-methylpiperazin-1-yl)pyridin-4-yl)thiazolo[4,5-b]pyridin-2-yl)-[4,4'-bipyridine]-3-carboxamide], the IC50 was 0.00699 µM in assay [1] (setting [4]), below 0.05 µM in assay [1] (setting [2]), 152 nM in “cells” (setting [5]) and 100 to 500 nM in the assay “cells” (setting [3]).

In the case of `COc1cnc(Cl)cc1-c1cc(C)ncc1C(=O)Nc1nc2ncc(N3CCC(O)(CO)CC3)cc2s1` [Example 106, 2'-chloro-N-(6-(4-hydroxy-4-(hydroxymethyl)piperidin-1-yl)thiazolo[4,5-b]pyridin-2-yl) -5'-methoxy-6-methyl-[4,4'-bipyridine]-3-carboxamide], the IC50 is 0.00618 µM in assay [1] (setting [4]), below 0.05 µM in assay [1] (setting [2]), 450 nM in the assay “cells” (setting [5]) and 100 to 500 nM in the assay “cells” (setting [3]).

As for `[2H]COc1cnc(Cl)cc1-c1cc(C)ncc1C(=O)Nc1nc2cnc(C3=CCC(O)CC3)cc2s1` (stereo not shown) [Example 108, 2'-chloro-N-(6-(4-hydroxycyclohex-1-en-1-yl)thiazolo[4,5-c]pyridin-2-yl)-5'-deuteromet hoxy-6-methyl-[4,4'-bipyridine]-3-carboxamide], the IC50 in assay [1] (setting [4]) is 0.00188 µM; in assay [1] (setting [2]), below 0.05 µM; in the assay “cells” (setting [5]) it was 8.79 nM; in “cells” (setting [3]), below 100 nM.

With `[2H]C([2H])([2H])c1cc(-c2cc(Cl)ncc2OC)c(C(=O)Nc2nc3cnc(C4=CCC(O)CC4)cc3s2)cn1` (stereo not shown) [Example 110, 2'-chloro-N-(6-(4-hydroxycyclohex-1-en-1-yl)thiazolo[4,5-c]pyridin-2-yl)-5'-methoxy-6-(methyl-d3)-[4,4'-bipyridine]-3-carboxamide], the IC50 in assay [1] (setting [4]) was 0.00261 µM; in assay [1] (setting [2]), below 0.05 µM; in the assay “cells” (setting [5]) it was 2.41 nM; in the assay “cells” (setting [3]), below 100 nM.

`[2H]C1(O)CC=C(c2cc3sc(NC(=O)c4cnc(C)cc4-c4cc(Cl)ncc4OC)nc3cn2)CC1` (stereo not shown) [Example 111, 2'-chloro-N-(6-(4-hydroxycyclohex-1-en-1-yl-4-d)thiazolo[4,5-c]pyridin-2-yl)-5'-methox y-6-methyl-[4,4'-bipyridine]-3-carboxamide]: the IC50 in assay [1] (setting [4]) is 0.00378 µM; in assay [1] (setting [2]), below 0.05 µM; in the assay “cells” (setting [5]), 13.1 nM; in the assay “cells” (setting [3]), below 100 nM.

As usually defined, the IC50 is the concentration that gives 50% inhibition.
